In patent US9598433B2, “Hepatitis C virus inhibitors” (BRISTOL-MYERS SQUIBB COMPANY, priority 2012, dated 2017) one finds EC50 data, which are given here for twelve compounds.

The subject of assay [1] is HCV genotype 1a (H77 strain) replicon in HUH-7 cells. The assay is described as follows: HCV replicon luciferase reporter assay, genotype 1a. In kind it is cell-based. Particulars: Hepatitis C virus, 72 h, genotype 1a replicon, 3 days incubation. In short, it runs like this:
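Stable HUH-7 line carrying luciferase-reporter genotype 1a (H77) replicon with adaptive NS3 P1496L and NS5A S2204I mutations; 3.0×10^3 cells/well in 4% FCS, 0.5% DMSO, twenty-point 3-fold titration, 3 days at 37 °C. Renilla luminescence with 7.5 μM EnduRen; EC50 by four-parameter logistic fit; CC50 by multiplexed Cell Titer-Blue.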
In general terms: Replicon systems follow genome replication, usually without infectious particles.

Assay [2] has as its system HCV genotype 1b (Con1) replicon in HUH-7 cells. The assay is described as follows: HCV replicon luciferase reporter assay, genotype 1b. Format: cell-based. Particulars: Hepatitis C virus, 72 h, genotype 1b replicon, 3 days incubation. An outline of the steps:
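Replication was read as Renilla luciferase signal, using 7.5 μM EnduRen substrate with a 2-h incubation at 37 °C. The signal came from a HUH-7 line constitutively expressing a luciferase-tagged 1b (Con1) replicon carrying S1179I.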

Like-named read-outs stand apart in the source and are kept apart here.

A word on the EC50: it is the concentration at which the effect is half-maximal. As to `COc1ccc2c(O[C@@H]3C[C@H]4C(=O)N[C@]5(C(=O)NS(=O)(=O)C6(C)CC6)C[C@H]5/C=C\CC[C@@H](C)O[C@@H](C)[C@H](NC(=O)OC(C)(C)C(F)F)C(=O)N4C3)nc3c(c2c1)CCCO3` [Compound 2310, 1,1-difluoro-2-methylpropan-2-yl ((2R,6S,7S,9R,13aS,14aR,16aS,Z)-2-((9-methoxy-2,3-dihydro-1H-pyrano[2,3-c]isoquinolin-6-yl)oxy)-7,9-dimethyl-14a-(((1-methylcyclopropyl)sulfonyl)carbamoyl)-5,16-dioxo-2,3,5,6,7,9,10,11,13a,14,14a,15,16,16a-tetradecahydro-1H-cyclopropa[i]pyrrolo[1,2-e][1,5,8]oxadiazacyclopentadecin-6-yl)carbamate], the EC50 in assay [1] (read-out: LE_1a (EC50, range)) was 0.1 to 0.5 nM; in assay [2] (read-out: LE_1b (EC50, range)) it was 0.1 to 0.5 nM.
On to `CC[C@@H]1O[C@H](C)CC/C=C\[C@@H]2C[C@@]2(C(=O)NS(=O)(=O)C2(C)CC2)NC(=O)[C@@H]2C[C@@H](Oc3nccc4cc(OC)c(F)cc34)CN2C(=O)[C@H]1NC(=O)OC(C)(C)C(F)(F)F` [Compound 1001], for which the EC50 is 1.26 nM in assay [1] (read-out: LE_1a (EC50)); 1.01 to 5 nM in assay [1] (read-out: LE_1a (EC50, range)); 0.47 nM in assay [2] (read-out: LE_1b (EC50)); 0.1 to 0.5 nM in assay [2] (read-out: LE_1b (EC50, range)).
For the compound `COc1cnc(O[C@@H]2C[C@H]3C(=O)N[C@]4(C(=O)NS(=O)(=O)C5(CF)CC5)C[C@H]4/C=C\CC[C@@H](C)O[C@@H](C)[C@H](NC(=O)OC(C)(C)C(F)F)C(=O)N3C2)c2ccccc12` [Compound 2016, 1,1-difluoro-2-methylpropan-2-yl ((2R,6S,7S,9R,13aS,14aR,16aS,Z)-14a-(((1-(fluoromethyl)cyclopropyl)sulfonyl)carbamoyl)-2-((4-methoxyisoquinolin-1-yl)oxy)-7,9-dimethyl-5,16-dioxo-2,3,5,6,7,9,10,11,13a,14,14a,15,16,16a-tetradecahydro-1H-cyclopropa[i]pyrrolo[1,2-e][1,5,8]oxadiazacyclopentadecin-6-yl)carbamate], the EC50 fell in the range of 1.01 to 5 nM in assay [1] (read-out: LE_1a (EC50, range)) and 0.51 to 1 nM in assay [2] (read-out: LE_1b (EC50, range)).
`CC[C@@H]1O[C@H](C)CC/C=C\[C@@H]2C[C@@]2(C(=O)NS(=O)(=O)C2CC2)NC(=O)[C@@H]2C[C@@H](Oc3ncc(OC)c4ccccc34)CN2C(=O)[C@H]1NC(=O)OC(C)(C)C(F)(F)F` [Compound 1004, 1,1,1-trifluoro-2-methylpropan-2-yl ((2R,6S,7S,9R,13aS,14aR,16aS,Z)-14a-((cyclopropylsulfonyl)carbamoyl)-7-ethyl-2-((4-methoxyisoquinolin-1-yl)oxy)-9-methyl-5,16-dioxo-2,3,5,6,7,9,10,11,13a,14,14a,15,16,16a-tetradecahydro-1H-cyclopropa[i]pyrrolo[1,2-e][1,5,8]oxadiazacyclopentadecin-6-yl)carbamate]: the EC50 in assay [1] (read-out: LE_1a (EC50, range)) lay within 0.51 to 1 nM; in assay [2] (read-out: LE_1b (EC50, range)), 0.1 to 0.5 nM.
On the same counts, the results for `COc1cnc(O[C@@H]2C[C@H]3C(=O)N[C@]4(C(=O)NS(=O)(=O)C5(C)CC5)C[C@H]4/C=C\CC[C@@H](C)O[C@@H](C)[C@H](NC(=O)OC(C)(C)C(C)(F)F)C(=O)N3C2)c2cc(F)ccc12` [Compound 2008, 3,3-difluoro-2-methylbutan-2-yl ((2R,6S,7S,9R,13aS,14aR,16aS,Z)-2-((7-fluoro-4-methoxyisoquinolin-1-yl)oxy)-7,9-dimethyl-14a-(((1-methylcyclopropyl)sulfonyl)carbamoyl)-5,16-dioxo-2,3,5,6,7,9,10,11,13a,14,14a,15,16,16a-tetradecahydro-1H-cyclopropa[i]pyrrolo[1,2-e][1,5,8]oxadiazacyclopentadecin-6-yl)carbamate] are 0.51 to 1 nM and 0.1 to 0.5 nM.
On the same counts, the results for `CC[C@@H]1OCCC/C=C\[C@@H]2C[C@@]2(C(=O)NS(=O)(=O)C2(C)CC2)NC(=O)[C@@H]2C[C@@H](Oc3nccc4cc(OC)ccc34)CN2C(=O)[C@H]1NC(=O)OC(C)(C)C(F)(F)F` [Compound 1005] are 1.01 to 5 nM and 0.51 to 1 nM.
For the compound `COc1cc(F)cc2c(O[C@@H]3C[C@H]4C(=O)N[C@]5(C(=O)NS(=O)(=O)C6(CF)CC6)C[C@H]5/C=C\CC[C@@H](C)O[C@@H](C)[C@H](NC(=O)OC(C)(C)C(F)(F)F)C(=O)N4C3)nccc12` [Compound 2020, 1,1,1-trifluoro-2-methylpropan-2-yl ((2R,6S,7S,9R,13aS,14aR,16aS,Z)-2-((7-fluoro-5-methoxyisoquinolin-1-yl)oxy)-14a-(((1-(fluoromethyl)cyclopropyl)sulfonyl)carbamoyl)-7,9-dimethyl-5,16-dioxo-2,3,5,6,7,9,10,11,13a,14,14a,15,16,16a-tetradecahydro-1H-cyclopropa[i]pyrrolo[1,2-e][1,5,8]oxadiazacyclopentadecin-6-yl)carbamate], the EC50 in assay [1] (read-out: LE_1a (EC50, range)) lay in the range of 1.01 to 5 nM; in assay [2] (read-out: LE_1b (EC50, range)), 0.51 to 1 nM.
Turning to `COc1cc(F)cc2c(O[C@@H]3C[C@H]4C(=O)N[C@]5(C(=O)NS(=O)(=O)C6(C)CC6)C[C@H]5/C=C\CC[C@@H](C)O[C@@H](C)[C@H](NC(=O)OC(C)(C)C(F)F)C(=O)N4C3)nccc12` [Compound 2019, 1,1-difluoro-2-methylpropan-2-yl ((2R,6S,7S,9R,13aS,14aR,16aS,Z)-2-((7-fluoro-5-methoxyisoquinolin-1-yl)oxy)-7,9-dimethyl-14a-(((1-methylcyclopropyl)sulfonyl)carbamoyl)-5,16-dioxo-2,3,5,6,7,9,10,11,13a,14,14a,15,16,16a-tetradecahydro-1H-cyclopropa[i]pyrrolo[1,2-e][1,5,8]oxadiazacyclopentadecin-6-yl)carbamate], the concentration giving a half-maximal response (EC50) was 1.01 to 5 nM in assay [1] (read-out: LE_1a (EC50, range)) and 0.51 to 1 nM in assay [2] (read-out: LE_1b (EC50, range)).
For the compound `C[C@@H]1CC/C=C\[C@@H]2C[C@@]2(C(=O)NS(=O)(=O)C2(C)CC2)NC(=O)[C@@H]2C[C@@H](Oc3nc4c(c5ccccc35)CCCO4)CN2C(=O)[C@@H](NC(=O)OC(C)(C)C(F)F)[C@H](C)O1` [Compound 2304, 1,1-difluoro-2-methylpropan-2-yl ((2R,6S,7S,9R,13aS,14aR,16aS,Z)-2-((2,3-dihydro-1H-pyrano[2,3-c]isoquinolin-6-yl)oxy)-7,9-dimethyl-14a-(((1-methylcyclopropyl)sulfonyl)carbamoyl)-5,16-dioxo-2,3,5,6,7,9,10,11,13a,14,14a,15,16,16a-tetradecahydro-1H-cyclopropa[i]pyrrolo[1,2-e][1,5,8]oxadiazacyclopentadecin-6-yl)carbamate], the EC50 in assay [1] (read-out: LE_1a (EC50)) was 0.49 nM; in assay [1] (read-out: LE_1a (EC50, range)), 0.1 to 0.5 nM; in assay [2] (read-out: LE_1b (EC50)), 0.64 nM; in assay [2] (read-out: LE_1b (EC50, range)) it was 0.51 to 1 nM.
For the compound `CC[C@@H]1O[C@H](C)CC/C=C\[C@@H]2C[C@@]2(C(=O)NS(=O)(=O)C2(C)CC2)NC(=O)[C@@H]2C[C@@H](Oc3nc4c(c5cc(OC)c(F)cc35)CCCO4)CN2C(=O)[C@H]1NC(=O)OC(C)(C)C(F)(F)F` [Compound 1017, 1,1,1-trifluoro-2-methylpropan-2-yl ((2R,6S,7S,9R,13aS,14aR,16aS,Z)-7-ethyl-2-((8-fluoro-9-methoxy-2,3-dihydro-1H-pyrano[2,3-c]isoquinolin-6-yl)oxy)-9-methyl-14a-(((1-methylcyclopropyl)sulfonyl)carbamoyl)-5,16-dioxo-2,3,5,6,7,9,10,11,13a,14,14a,15,16,16a-tetradecahydro-1H-cyclopropa[i]pyrrolo[1,2-e][1,5,8]oxadiazacyclopentadecin-6-yl)carbamate], the EC50 in assay [1] (read-out: LE_1a (EC50, range)) is 0.51 to 1 nM; in assay [2] (read-out: LE_1b (EC50, range)), 0.51 to 1 nM.
With `CC[C@@H]1O[C@H](C)CC/C=C\[C@@H]2C[C@@]2(C(=O)NS(=O)(=O)C2(C)CC2)NC(=O)[C@@H]2C[C@@H](Oc3ncc(OC)c4ccccc34)CN2C(=O)[C@H]1NC(=O)OC(C)(C)C(F)F` [Compound 2618, 1,1-difluoro-2-methylpropan-2-yl ((2R,6S,7S,9R,13aS,14aR,16aS,Z)-7-ethyl-2-((4-methoxyisoquinolin-1-yl)oxy)-9-methyl-14a-(((1-methylcyclopropyl)sulfonyl)carbamoyl)-5,16-dioxo-2,3,5,6,7,9,10,11,13a,14,14a,15,16,16a-tetradecahydro-1H-cyclopropa[i]pyrrolo[1,2-e][1,5,8]oxadiazacyclopentadecin-6-yl)carbamate], the EC50 in assay [1] (read-out: LE_1a (EC50, range)) fell in the range of 0.1 to 0.5 nM; in assay [2] (read-out: LE_1b (EC50, range)), 0.1 to 0.5 nM.
As to `CC[C@@H]1O[C@H](C)CC/C=C\[C@@H]2C[C@@]2(C(=O)NS(=O)(=O)C2(C)CC2)NC(=O)[C@@H]2C[C@@H](Oc3nc4cc(OC)ccc4nc3C(F)(F)F)CN2C(=O)[C@H]1NC(=O)OC(C)(C)C(F)(F)F` [Compound 1015, 1,1,1-trifluoro-2-methylpropan-2-yl ((2R,6S,7S,9R,13aS,14aR,16aS,Z)-7-ethyl-2-((7-methoxy-3-(trifluoromethyl)quinoxalin-2-yl)oxy)-9-methyl-14a-(((1-methylcyclopropyl)sulfonyl)carbamoyl)-5,16-dioxo-2,3,5,6,7,9,10,11,13a,14,14a,15,16,16a-tetradecahydro-1H-cyclopropa[i]pyrrolo[1,2-e][1,5,8]oxadiazacyclopentadecin-6-yl)carbamate], the EC50 in assay [1] (read-out: LE_1a (EC50, range)) was in the range of 0.1 to 0.5 nM; in assay [2] (read-out: LE_1b (EC50, range)), 0.1 to 0.5 nM.
